Reference: patent US10149855B2, “Gamma-secretase inhibition reduce APOC3 levels and plasma triglycerides” (THE TRUSTEES OF COLUMBIA UNIVERSITY IN THE CITY OF NEW YORK, priority 2014, dated 2018)

Key:
[1] = test system: Lean mice, diet induced obese (DIO) mice, and leptin-deficient obese (ob/ob) mice; test: Weight, glucose and insulin of mice administered GSI (DBZ) or vehicle; type: in vivo
Method: Lean mice, diet induced obese (DIO) mice, and leptin-deficient obese (ob/ob) mice were administered either vehicle or GSI. [table]

DIO mice = test: Fasted/refed plasma glucose and glucose clearance in GSI-treated mice; type: in vivo; conditions: compared to vehicle (FIG. 3 Panel A)
[2] = test system: lean, diet-induced obese (DIO) and leptin-deficient obese (ob/ob) mice; test: Plasma/serum triglyceride levels in mice treated with GSI or vehicle; type: in vivo
Method: Mice were administered GSI or vehicle alone to determine the effect of GSI treatment on serum triglyceride levels. […] Plasma triglyceride lowering in genetic (leptin deficient ob/ob mice) or diet-induced mouse models of obesity was even more profound, with reductions approaching 75% of vehicle-treated animals. […] L-Ncst mice had similar reductions in plasma triglyceride as GSI-treated mice, proof that the mechanism of GSI-induced reduction in plasma triglyceride is through effects on liver. L-Ncst mice had approximately 40% reduced plasma triglyceride as compared to control mice when fed normal chow, but this rises to a staggering 70% reduction when mice were challenged with high-fat diet feeding. […] As such, gamma-secretase inhibition with GSIs or liver-specific gamma-secretase blockers would be predicted to have a greater, and perhaps synergistic, effect in reducing plasma triglyceride as compared to drugs that solely target ApoC3 expression.

mice [3] = conditions: mouse, in vivo
mice [4] = test: Triglyceride secretion after lipoprotein lipase inhibition with Poloxamer 407; type: in vivo; conditions: plasma TG after lipoprotein lipase inhibition with Poloxamer 407 (FIG. 7)
Description: DBZ-induced lower plasma TG in diet-induced obese (DIO) and leptin-deficient obese (ob/ob) mice is in the VLDL fraction. […] To differentiate these—we created a liver-specific gamma-secretase knockout mouse.

ApoC3 = test: Plasma ApoC3 levels in GSI-treated mice; type: in vivo
Description: Plasma triglyceride lowering in genetic (leptin deficient ob/ob mice) or diet-induced mouse models of obesity was even more profound, with reductions approaching 75% of vehicle-treated animals. […] L-Ncst mice had similar reductions in plasma triglyceride as GSI-treated mice, proof that the mechanism of GSI-induced reduction in plasma triglyceride is through effects on liver. L-Ncst mice had approximately 40% reduced plasma triglyceride as compared to control mice when fed normal chow, but this rises to a staggering 70% reduction when mice were challenged with high-fat diet feeding. […] As such, gamma-secretase inhibition with GSIs or liver-specific gamma-secretase blockers would be predicted to have a greater, and perhaps synergistic, effect in reducing plasma triglyceride as compared to drugs that solely target ApoC3 expression.

Nicastrin = test: shRNA-mediated knockdown of Nicastrin, ApoC3 secretion; type: cell-based; conditions: mouse hepatocytes (FIG. 25)

Molecule	Glucose ([1]; DIO mice)	Insulin ([1]; DIO mice)	Glucose ([1]; lean mice)	Insulin ([1]; lean mice)	Glucose ([1]; ob/ob mice)	Insulin ([1]; ob/ob mice)	fasted and refed glucose (DIO mice)	triglycerides in VLDL, LDL and HDL fractions ([2]; DIO and ob/ob mice (FIG. 5))	plasma triglyceride ([2]; lean mice)	plasma triglyceride reduction ([2]; ob/ob or diet-induced obese mice, relative to vehicle-treated animals)	plasma triglyceride (TG) ([2]; obese mice (DIO and ob/ob), compared to vehicle (FIG. 4))	gastrointestinal (GI) toxicity (mice [3])	TG secretion (mice [4])	plasma ApoC3 levels (ApoC3)	ApoC3 secretion (Nicastrin)
C[C@H](NC(=O)Cc1cc(F)cc(F)c1)C(=O)N[C@@H]1C(=O)N(C)c2ccccc2-c2ccccc21 [GSI, N-[(1S)-2-[[(7S)-6,7-dihydro-5-methyl-6-oxo-5H-dibenz[b,d]azepin-7-yl]amino]-1-methyl-2-oxoethyl]-3,5-difluoro-benzeneacetamide]	72 ± 5 mg/dL	1.33 ± 0.32 ng/mL	64 ± 2 mg/dL	0.49 ± 0.04 ng/mL	98 ± 6 mg/dL	15.6 ± 3.25 ng/mL	reduced both fasted as well as refed (or exogenous) glucose	lowered triglycerides in the VLDL fraction	reduces plasma triglyceride in a dose-dependent manner	~75%	lower plasma triglyceride	not associated with apparent gastrointestinal (GI) toxicity	does not affect TG secretion	markedly and proportionately reduced	–
SEQ ID NO. 59: shRNA for knockdown of Nicastrin, sequence CTCCTTCCACAATCGGTATTA (listed as DNA, chemistry not fully specified; listed as Rattus norvegicus)	–	–	–	–	–	–	–	–	–	–	–	–	–	–	reduces ApoC3 secretion
